Source: US7544709B2, “Derivatives of andrimide and moiramide B having antibacterial properties” (Bayer Healthcare AG, priority 2001, dated 2009)
≈ marks a conversion by molar mass, not a printed value. Where two headings read alike, the source gives them in different places.

Legend:
[1] = system: Staphylococcus aureus 133; experiment: Determination of minimum inhibitory concentration (MIC), liquid dilution test; format: cell-based
Procedure: (§1) Determination of Minimum Inhibitory Concentration (MIC):
(§2) The MIC is determined in the liquid dilution test. Overnight cultures of the test organisms are diluted to a cell count of 10^5 organisms per ml in Isosensitest medium (manufacturer: Difco) and are incubated with dilutions of the test substances (1:2 dilution states). Exceptions are the tests with S. pneumoniae G9A, which are conducted in BHI broth (Difco) plus 20% bovine serum, and with H. influenzae, which are conducted in BHI broth (Difco) plus 20% bovine serum, 10 μg/ml hemin and 1% Isovitale (Becton Dickinson).
(§3) The cultures are incubated at 37° C. for 18-24 hours; S. pneumoniae and H. influenzae in the presence of 8-10% CO2.
(§4) The lowest concentration of each substance at which there was no longer any visible bacterial growth is defined as the MIC. The MICs in μmol/l of some compounds according to the invention against a series of test organisms are listed by way of example in the table below.

[2] = system: Haemophilus influenzae Spain 7; experiment: as above; format: cell-based; details: SPAIN7, BHI broth plus 20% bovine serum, 10 μg/ml hemin and 1% Isovitale, 37° C., 18-24 hours, 8-10% CO2
Procedure: as §1, §2, §3, §4

[3] = described in the literature; cited from earlier work
[4] = Staphylococcus aureus, 133, liquid dilution test, Isosensitest medium, 10^5 organisms per ml, 37° C., 18-24 hours, lowest concentration with no visible growth, read-out: MIC Staphylococcus aureus 133

| MIC [1, 4] [µM] | MIC [2] [µM] | Compound | MIC ([1]; Staphylococcus aureus, 133, read-out: MIC Staphylococcus aureus 133) [µM] | antibacterial activity [3] |
| --- | --- | --- | --- | --- |
| 62.5 (≈ 31.8 µg/mL) | 62.5 | COc1ccc(NC(=O)N[C@@H](CC(=O)N[C@H](C(=O)[C@@H]2C(=O)NC(=O)[C@H]2C)C(C)C)c2ccccc2)cc1 [Example 6, (S)-3-[3-(4-Methoxyphenyl)ureido]-N-{(S)-2-methyl-1-[1-((3R,4S)-4-methyl-2,5-dioxopyrrolidin-3-yl)methanoyl]propyl}-3-phenylpropionamide] |  |  |
| 15.6 (≈ 7.68 µg/mL) | 31.3 | CC(C)[C@H](NC(=O)C[C@H](NC(=O)N(C)c1ccccc1)c1ccccc1)C(=O)[C@@H]1C(=O)NC(=O)[C@H]1C [Example 7, (S)-N-{(S)-2-Methyl-1-[1-((3R,4S)-4-methyl-2,5-dioxopyrrolidin-3-yl)methanoyl]-propyl}-3-(3-methyl-3-phenylureido)-3-phenylpropionamide] |  |  |
| 7.8 (≈ 4.12 µg/mL) | 62.5 | CC(C)[C@H](NC(=O)CC(NC(=O)Nc1cccc2ccccc12)c1ccccc1)C(=O)[C@@H]1C(=O)NC(=O)[C@H]1C (stereo partly drawn) [Example 9, N-((1s)-2-Methyl-1-{[(3R,4S)-4-methyl-2,5-dioxo-3-pyrrolidinyl]carbonyl}propyl)-3-{[(1-naphthylamino)carbonyl]amino}-3-phenylpropionamide] |  |  |
| 7.8 (≈ 4.53 µg/mL) | 125 | CC(C)[C@H](NC(=O)CC(NC(=O)Nc1ccc(Cl)c(C(F)(F)F)c1)c1ccccc1)C(=O)[C@@H]1C(=O)NC(=O)[C@H]1C (stereo partly shown) [Example 10] |  |  |
| 31.3 (≈ 15.2 µg/mL) | 125 | C[C@@H]1C(=O)NC(=O)[C@H]1C(=O)C(NC(=O)C[C@H](NC(=O)OC(C)(C)C)c1ccccc1)C1CCCC1 (stereo partly shown) [Example 33] |  |  |
| 7.8 (≈ 4.1 µg/mL) | 125 | CC(C)[C@H](NC(=O)C[C@H](NS(=O)(=O)/C=C/c1ccccc1)c1ccccc1)C(=O)[C@@H]1C(=O)NC(=O)[C@H]1C [Example 47, (3S)-N-((1S)-2-Methyl-1-{[(3R,4S)-4-methyl-2,5-dioxo-3-pyrrolidinyl]carbonyl}-propyl)-3-phenyl-3-({[(E)-2-phenylethenyl]sulfonyl}amino)propionamide] |  |  |

Continued, compound first:

| Compound | MIC [1, 4] [µM] | MIC [2] [µM] | MIC ([1]; Staphylococcus aureus, 133, read-out: MIC Staphylococcus aureus 133) [µM] | antibacterial activity [3] |
| --- | --- | --- | --- | --- |
| CC(C)[C@H](NC(=O)C[C@H](NC(=O)NCc1ccccc1)c1ccccc1)C(=O)[C@@H]1C(=O)NC(=O)[C@H]1C [Example 2, (S)-3-(3-Benzylureido)-N-{(S)-2-methyl-1-[1-((3R,4S)-4-methyl-2,5-dioxopyrrolidin-3-yl)-methanoyl]propyl}-3-phenylpropionamide] | 3.9 (≈ 1.92 µg/mL) | 62.5 |  |  |
| CC(C)[C@H](NC(=O)C[C@H](NC(=O)Nc1ccccc1)c1ccccc1)C(=O)[C@@H]1C(=O)NC(=O)[C@H]1C [Example 5, (S)-N-{(S)-2-Methyl-1-[1-((3R,4S)-4-methyl-2,5-dioxopyrrolidin-3-yl)-methanoyl]-propyl}-3-phenyl-3-(3-phenylureido)propionamide] | 62.5 (≈ 29.9 µg/mL) |  |  |  |
| CC(C)[C@H](NC(=O)CC(NC(=O)Oc1ccc(-c2ccccc2)cc1)c1ccccc1)C(=O)[C@@H]1C(=O)NC(=O)[C@H]1C (stereo partly shown) [Example 35] |  |  | 0.98 (≈ 0.545 µg/mL) |  |
| C/C=C/C=C/C=C/C(=O)N[C@@H](CC(=O)N[C@H](C(=O)[C@@H]1C(=O)NC(=O)[C@H]1C)C(C)C)c1ccccc1 [andrimid] |  |  |  | having antibacterial activity |
| C/C=C/C=C/C(=O)N[C@@H](CC(=O)N[C@H](C(=O)[C@@H]1C(=O)NC(=O)[C@H]1C)C(C)C)c1ccccc1 [moiramide B] |  |  |  | having antibacterial activity |
| C/C=C/C=C/C=C/C(=O)N[C@@H](CC(=O)N[C@H](C(=O)[C@@]1(O)C(=O)NC(=O)[C@H]1C)C(C)C)c1ccccc1 [moiramide C] |  |  |  | inactive |
